Assay results published in patent US12161689B2, “Anti-infective formulations” (NEW MEXICO TECH UNIVERSITY RESEARCH PARK CORPORATION, priority 2018, dated 2024).
Where a SMILES comes first, the peptide text is derived from it. Bridges are numbered along the chain shown (N, C = ends). [ ]: non-standard residue; d: D form. The star is where a group is joined. Ileψ(thiazoline)Cys = CC[C@H](C)[C@H](N)C1=N[C@H](C(=O)*)CS1; dOrn = NCCC[C@@H](N)C(=O)O

What was measured:
red blood cells = test: Hemolysis on blood agar plate; conditions: 5 μL spotted; refrigerated overnight
[1] = test system: Escherichia coli (O157:H7) (ATCC 51657); test: Spot on lawn, MHA plate: killing / diameter of clearance; format: cell-based; design: key to antibacterial activity: “+” indicates antibacterial activity with complete clearing; “−” indicates no antibacterial activity; conditions: for antibacterial activity: 24 to 48 hours at 37° C.
[2] = test system: CRE NDM-1 MDR (ATCC BAA 2146); test: as above; format: cell-based, Enterobacteriaceae; design: key to antibacterial activity: “+” indicates antibacterial activity with complete clearing; “−” indicates no antibacterial activity; conditions: for antibacterial activity: 24 to 48 hours at 37° C.
[3] = test system: multi-drug resistant Acinetobacter baumannii (ATCC 1797); test: as above; format: cell-based; conditions: 10 μL spot; for antibacterial activity: 24 to 48 hours at 37° C.
[4] = test system: Mycobacterium abscessus (ATCC 19977); test: as above; format: cell-based; design: key: “+” indicates antibacterial activity with complete clearing; “−” indicates no antibacterial activity; conditions: 10 μL spot, 24 to 48 hours at 37° C.
[5] = test system: multi-drug resistant Pseudomonas aeruginosa (ATCC 2114); test: as above; format: cell-based; conditions: 10 μL spot; for antibacterial activity: 24 to 48 hours at 37° C.
Streptococcus pyogenes = test: as above; format: cell-based; design: key to antibacterial activity: “+” indicates antibacterial activity with complete clearing; “−” indicates no antibacterial activity; conditions: for antibacterial activity / killing of Streptococcus pyogenes: 10 μL spot; for antibacterial activity: 24 to 48 hours at 37° C.; for killing of Streptococcus pyogenes: incubation period of 1 day; for killing of S. pyogenes: after 7 days of incubation
[6] = test system: Stenotrophomonas maltophilia (ATCC 13637); test: as above; format: cell-based; design: key: “+” indicates antibacterial activity with complete clearing; “−” indicates no antibacterial activity; conditions: S. maltophilia (ATCC 13637); 10 μL spot; 24 to 48 hours at 37° C.
[7] = test system: multi-drug-resistant E. coli CDC AR0493; test: Spot on lawn, MHA plate: killing; format: cell-based; conditions: 10 μL spot, 24 to 48 hours at 37° C.
Yesenia pestis (Kimo 6) = format: cell-based, Yersinia pestis; conditions: 10 μL spot; for antibacterial activity: Yersinia pestis KIM6, 24 to 48 hours at 37° C.; for efficacy against Yesenia pestis (Kimo 6), comparison with antibiotics: incubation period of 1 day
MRSA (ATCC BAA44) = test: Spot on lawn, MHA plate: killing / diameter of clearance; format: cell-based, Staphylococcus aureus; conditions: for antibacterial activity: 24 to 48 hours at 37° C.
[8] = test system: Vancomycin-resistant enterococcus (VRE) (ATCC 51299); test: as above; format: cell-based; design: key to antibacterial activity: “+” indicates antibacterial activity with complete clearing; “−” indicates no antibacterial activity; conditions: 10 μL spot; for antibacterial activity: 24 to 48 hours at 37° C.
[9] = test system: multi-drug resistant E. coli (AR 0346); test: Spot on lawn, MHA plate: killing; format: cell-based; conditions: 10 μL; 3 days at 37° C.
Description: An overnight growth of multi-drug resistant E. coli (AR 0346) was made in MHB. The samples were diluted 1:1000, and spread onto a MHA plate.

[10] = test system: Salmonella enteriditis CDC AR0496; test: Spot on lawn, MHA plate: killing; format: cell-based; conditions: 10 μL spot, 24 to 48 hours at 37° C.
[11] = test system: multi-drug resistant E. coli (AR 0348); test: Spot on lawn, MHA plate: killing; format: cell-based; conditions: 10 μL; 1 day at 37° C.
Description: An overnight growth of multi-drug resistant E. coli (AR 0348) was made in MHB. The samples were diluted 1:1000, and spread onto a MHA plate.

MCR-1 E. coli (AR 0350) = test: Spot on lawn, MHA plate: killing; format: cell-based; conditions: 10 μL drops; 1 day at 37° C.
From the text: An overnight growth of MCR-1 E. coli (AR 0350) was made in MHB, and was spread undiluted onto a MHA plate.

MRSA BAA-1717 (USA 300) = test: Spot on lawn, MHA plate: killing / diameter of clearance; conditions: 10 μL; overnight at 37° C. (FIG. 63)
[12] = test system: Shigella flexneri 85W 2332; test: Spot on lawn, MHA plate: killing; format: cell-based; conditions: 10 μL spot, 24 to 48 hours at 37° C.
[13] = test system: Bacillus subtilis (ATCC 6633); test: Spot on lawn, MHA plate: killing / diameter of clearance; format: cell-based; conditions: 10 μL spot; incubation period of 1 day
[14] = test system: multi-drug resistant Burkholderia cepacia (ATCC 10856); test: as above; format: cell-based; conditions: for killing of multi-drug resistant Burkholderia cepacia: 10 μL, overnight at 37° C. (FIG. 63); for antibacterial activity: 10 μL spot, 24 to 48 hours at 37° C.
[15] = E. Coli (O157:H7) (ATCC 51657), 10 μL spot
[16] = CRE NDM-1 (MDR) ATCC BAA-2146, 10 μL spot
[17] = CRE NDM-1 MDR (ATCC BAA 2146), 10 μL spot
[18] = Mycobacterium abscessus ATCC19977
[19] = Streptococcus pyogenes 85W 1180
[20] = 10 μL spot, incubation period of 1 day
[21] = Burkholderia cepacia ATCC 10856

O=C(O)c1ccccc1O [2% salicylic acid, salicylic acid]
blood hemolysis (red blood cells): little to no hemolysis

CC[C@H](C)[C@H](N)C1=N[C@H](C(=O)N[C@@H](CC(C)C)C(=O)N[C@H](CCC(=O)O)C(=O)N[C@H](C(=O)N[C@H]2CCCCNC(=O)[C@H](CC(N)=O)NC(=O)[C@@H](CC(=O)O)NC(=O)[C@H](Cc3cnc[nH]3)NC(=O)[C@@H](Cc3ccccc3)NC(=O)[C@H]([C@@H](C)CC)NC(=O)[C@@H](CCCN)NC2=O)[C@@H](C)CC)CS1 [Bacitracin] ({Ileψ(thiazoline)Cys}-L[dE]IK[dOrn]I[dF]H[dD]N; lactam 4-C)
antibacterial activity [1, 15]: − | antibacterial activity ([1]; E. coli O157:H7, 10 μL spot): − | antibacterial activity [2, 16]: − | antibacterial activity [2, 17]: − | antibacterial activity ([3]; A. Baumannii MDR (ATCC 1797)): − | antibacterial activity ([3]; A. baumannii MDR ATCC 1797): − | antibacterial activity ([4]; M. abscessus (ATCC 19977)): − | antibacterial activity [4, 18]: − | antibacterial activity ([5]; P. aeruginosa MDR (ATCC 2114)): − | antibacterial activity ([5]; P. aeruginosa MDR ATCC 2114): − | antibacterial activity (Streptococcus pyogenes; S. pyogenes): − | antibacterial activity (Streptococcus pyogenes; [19]): − | antibacterial activity [6]: − | antibacterial activity [7]: − | antibacterial activity (Yesenia pestis (Kimo 6)): − | antibacterial activity (MRSA (ATCC BAA44); MRSA (ATCC BAA44), 10 μL spot): − | antibacterial activity (MRSA (ATCC BAA44); MRSA ATCC BAA-44, 10 μL spot): − | killing of VRE ([8]; incubation period of 1 day): killed | antibacterial activity ([8]; VRE (ATCC 51299)): − | antibacterial activity ([8]; VRE): −

C/C(=C\C(=O)OCCCCCCCCC(=O)O)C[C@@H]1OC[C@H](C[C@@H]2O[C@H]2[C@@H](C)[C@H](C)O)[C@@H](O)[C@H]1O [Mupirocin]
killing of multi-drug resistant E. coli (AR 0346) [9]: fully killed | antibacterial activity [10]: + | killing of Escherichia coli (O157:H7) [1, 20]: killed | antibacterial activity [1, 15]: + | antibacterial activity ([1]; E. coli O157:H7, 10 μL spot): + | killing of Escherichia coli (O157:H7) ([1]; after 5 days of incubation): only formulations that killed | regrowth of Escherichia coli (O157:H7) ([1]; after 5 days of incubation): not observed | killing of CRE NDM-1 MDR [2, 20]: killed | antibacterial activity [2, 16]: − | antibacterial activity [2, 17]: − | killing of CRE NDM-1 MDR ([2]; after 5 days of incubation): only formulations that killed | regrowth of CRE NDM-1 MDR ([2]; after 5 days of incubation): not observed | killing of A. baumannii ([3]; incubation period of 1 day (FIG. 54)): killed | antibacterial activity ([3]; A. Baumannii MDR (ATCC 1797)): − | antibacterial activity ([3]; A. baumannii MDR ATCC 1797): − | killing of multi-drug resistant E. coli (AR 0348) [11]: fully killed | antibacterial activity ([4]; M. abscessus (ATCC 19977)): − | antibacterial activity [4, 18]: − | killing of MCR-1 E. coli (AR 0350; colisitin-resistance only) (MCR-1 E. coli (AR 0350)): fully killed | killing of multi-drug resistant Pseudomonas aeruginosa ([5]; incubation period of 1 day (FIG. 55)): killed | antibacterial activity ([5]; P. aeruginosa MDR (ATCC 2114)): + | antibacterial activity ([5]; P. aeruginosa MDR ATCC 2114): + | killing of Streptococcus pyogenes (Streptococcus pyogenes): killed | antibacterial activity (Streptococcus pyogenes; S. pyogenes): + | antibacterial activity (Streptococcus pyogenes; [19]): + | killing of S. pyogenes (Streptococcus pyogenes): further killed | antibacterial activity [6]: − | killing of MRSA BAA-1717 (USA 300) (MRSA BAA-1717 (USA 300)): killed | antibacterial activity [12]: + | antibacterial activity [7]: + | efficacy against Yesenia pestis (Kimo 6), comparison with antibiotics (Yesenia pestis (Kimo 6)): more effective than MM8 | antibacterial activity (Yesenia pestis (Kimo 6)): + | killing of MRSA (MRSA (ATCC BAA44); 10 μL spot, incubation period of 1 day (FIG. 52)): killed | antibacterial activity (MRSA (ATCC BAA44); MRSA (ATCC BAA44), 10 μL spot): + | antibacterial activity (MRSA (ATCC BAA44); MRSA ATCC BAA-44, 10 μL spot): + | killing of MRSA (MRSA (ATCC BAA44); after 4 days of incubation): only formulations that killed | regrowth of MRSA (MRSA (ATCC BAA44); after 4 days of incubation): not observed | killing of Bacillus subtilis [13]: killed | killing of multi-drug resistant Burkholderia cepacia [14]: killed | antibacterial activity ([14]; B. cepacia (ATCC 10856)): + | antibacterial activity [14, 21]: + | antibacterial activity ([8]; VRE (ATCC 51299)): − | antibacterial activity ([8]; VRE): −

O=C(OOC(=O)c1ccccc1)c1ccccc1 [benzoyl peroxide]
blood hemolysis (red blood cells): complete hemolysis

Neomycin
killing of Escherichia coli (O157:H7) [1, 20]: killed | antibacterial activity [1, 15]: + | antibacterial activity ([1]; E. coli O157:H7, 10 μL spot): + | killing of Escherichia coli (O157:H7) ([1]; after 5 days of incubation): only formulations that killed | regrowth of Escherichia coli (O157:H7) ([1]; after 5 days of incubation): not observed | antibacterial activity [2, 16]: − | antibacterial activity [2, 17]: − | antibacterial activity ([3]; A. Baumannii MDR (ATCC 1797)): − | antibacterial activity ([3]; A. baumannii MDR ATCC 1797): − | antibacterial activity ([4]; M. abscessus (ATCC 19977)): − | antibacterial activity [4, 18]: − | antibacterial activity ([5]; P. aeruginosa MDR (ATCC 2114)): − | antibacterial activity ([5]; P. aeruginosa MDR ATCC 2114): − | killing of Streptococcus pyogenes (Streptococcus pyogenes): killed | regrowth of Streptococcus pyogenes colonies in treated area (Streptococcus pyogenes; FIG. 59, 7 days): colonies invaded | antibacterial activity (Streptococcus pyogenes; S. pyogenes): + | antibacterial activity (Streptococcus pyogenes; [19]): + | killing of S. pyogenes (Streptococcus pyogenes): further killed | antibacterial activity [6]: + | antibacterial activity [7]: − | efficacy against Yesenia pestis (Kimo 6), comparison with antibiotics (Yesenia pestis (Kimo 6)): more effective than MM8 | antibacterial activity (Yesenia pestis (Kimo 6)): − | antibacterial activity (MRSA (ATCC BAA44); MRSA (ATCC BAA44), 10 μL spot): − | antibacterial activity (MRSA (ATCC BAA44); MRSA ATCC BAA-44, 10 μL spot): − | killing of Bacillus subtilis [13]: killed | killing of multi-drug resistant Burkholderia cepacia [14]: killed | antibacterial activity ([14]; B. cepacia (ATCC 10856)): − | antibacterial activity [14, 21]: − | antibacterial activity ([8]; VRE (ATCC 51299)): − | antibacterial activity ([8]; VRE): −
